Laboratory results taken from US20110256121A1, “METHODS AND KITS FOR DIAGNOSING OR MONITORING AUTOIMMUNE AND CHRONIC INFLAMMATORY DISEASES” (THE REGENTS OF THE UNIVERSITY OF MICHIGAN, priority 2008, published 2011).

Key:
[1] = system: T cell CD70 expression; assay: CD70 expression on PHA-stimulated T cells by flow cytometry; assay type: cell-based, human; settings: for CD70 expression on treated vs untreated PHA-stimulated T cells: unfractionated T cells, 3 days, dose-response for procainamide, PD98059, U0126
Experimental: Cells and cell culture. Peripheral blood mononuclear cells (PBMCs) were isolated by density-gradient centrifugation. T cells were then isolated by E-rosetting (See, e.g., Golbus et al., Clin Immunol Immunopathol 46, 129 (1988)). […] Where indicated, the cells were cultured in RPMI 1640/10% fetal calf serum (FCS) supplemented with interleukin-2 (IL-2) (See, e.g., Richardson et al., Clin Immunol Immunopathol 55, 368 (1990)), in round-bottomed 5-ml culture tubes (Falcon). Cells were stimulated with 1 μg/ml of PHA (Remel) for 16 hours, then cultured in 24-well plates at a density of 1×10^6 for an additional 72 hours in the presence of 2-deoxy-5-azaC or 5-azaC (Sigma-Aldrich), procainamide (Sigma-Aldrich), hydralazine (Sigma-Aldrich), or the MEK inhibitors U0126 (Promega) or PD98059 (Promega). In other studies, PHA-stimulated PBMCs were cultured in RPMI 1640/10% FCS and treated with indomethacin, chloroquine, hydrocortisone, and 6-mercaptopurine (6-MP) (all from Sigma-Aldrich). TT48E, a cloned, CD4+, tetanus toxoid-reactive human T cell line, was cultured as previously described (Cornacchia et al., J Immunol 140, 2197 (1988); Richardson et al., Arthritis Rheum 35, 647 (1992)).
Flow cytometric analysis. The following fluorochrome-conjugated monoclonal antibodies were obtained from BD PharMingen (San Diego, Calif.): FITC-conjugated anti-human CD70, CD2, or isotype-matched controls; phycoerythrin (PE)-conjugated anti-CD2, CD4, and CD8; and CyChromeconjugated anti-HLA-DR, CD2, and isotype controls. Staining and multicolor flow cytometric analysis were performed (See, e.g., Hale et al., Cell Immunol 220, 51 (2002)) using saturating concentrations of antibody.
The panel of inhibitors used included 5-azaC, an irreversible DNA methyltransferase inhibitor (See, e.g., Glover and Leyland-Jones, Cancer Treat Rep 71, 959 (1987)) procainamide, a competitive DNA methyltransferase inhibitor (See e.g., Scheinbart et al., J Rheumatol 18, 530 (1991)), and the ERK pathway inhibitors PD98059, U0126, and hydralazine.
Studies were performed examining the effects of the DNA methylation inhibitors on CD70 expression in CD4+ and CD8+ T cell subsets.

[2] = system: CD70-dependent B cell help; assay: TT48E T cell clone and autologous B cell costimulation without PWM, IgG ELISA; assay type: cell-based, human; settings: P<0.05
Experimental: T cell and B cell costimulation assays. E-rosette-purified T cells were stimulated for 16 hours with PHA and then treated with the indicated chemicals for an additional 72 hours as described above. Where indicated, T cell subsets were isolated by negative selection using magnetic beads (Miltenyi). B cells (1-4×10^5) enriched by negative selection using magnetic beads (Miltenyi) and assessed to be 70-85% pure using PE-conjugated anti-human CD21 (PharMingen), were added to washed, drug-treated autologous T cells, at T cell to B cell ratios of 4:1, 2:1, 1:1, 1:2, and 1:4. Where indicated, 0.625 μg/ml of PWM (Aldrich) was added. The cells were cultured in RPMI 1640/10% FBS/penicillin/streptomycin for 8 days in 96-well roundbottomed plates (Costar) containing a 200 μl total volume (performed in duplicate). Cells were supplemented with 50 μl of medium on day 4. Where indicated, 1 μg/ml of anti-CD70 monoclonal antibody (HNE51) (Dako) was added to the cultures. TT48E cells were similarly stimulated with PHA (1 μg/ml) for 18 hours, treated with the indicated drugs for 3 days, then similarly cultured with autologous B cells for 8 days. […]
IgG enzyme-linked immunosorbent assays (ELISAs). […] Serial dilutions of purified human IgG (Sigma) were used for quantitation. […] The plates were read at 405 nm using a SpectraMax spectrophotometer (Molecular Devices). […]

| SMILES | increase of CD70 MFI on CD4+ T cells ([1]; 1 μM 5-azaC, n=5, P=0.025) [fold] | CD70 expression on CD4+ T cells [1] | 5-azaC concentration producing the greatest effect on CD70 expression ([1]; range of 5-azaC concentrations, n=5) [µM] | CD70 expression on treated vs untreated PHA-stimulated T cells ([1]; 1 μM 5-azaC) | IgG produced by B cells cultured with drug-treated TT48E vs untreated T cells [2] | increase of CD70 MFI on CD4+ T cells ([1]; 40 μM U0126, n=4, P=0.039) [fold] | increase of CD70 MFI in T cells treated with U0126 (FIG. 2I) ([1]; U0126, P=0.085, stated in the CD8+ context) [fold] |
| --- | --- | --- | --- | --- | --- | --- | --- |
| Nc1ncn([C@@H]2O[C@H](CO)[C@@H](O)[C@H]2O)c(=O)n1 [5-azaC, 5-azacytidine] | 1.53±0.45 | increased CD70 expression on CD4+ T cells | 1 | small increase | produce greater amounts of IgG | – | – |
| N#CC(=C(/N)Sc1ccccc1N)/C(C#N)=C(\N)Sc1ccccc1N [U0126] | – | increased CD70 expression on CD4+ T cells | – | increase in CD70 expression with treatment | produce greater amounts of IgG | 3.20±0.44 | 2.83±0.95 |
